Data taken from patent publication US20220348565A1, “PHARMACEUTICAL COMPOUNDS” (SENTINEL ONCOLOGY LIMITED, priority 2019, published 2022).
pIC50: −log10 of the molar value.

Columns and labels:
PLK4 catalytic domain = biological target: T1, PLK4 catalytic domain (Homo sapiens, UniProt O00444); test: DiscoverX KinomeScreen competition binding assay, PLK4; conditions: read-out: % Ctrl @ 3 μM
T1 construct: purchased DiscoverX; host or cells: T7 phage in E. coli (BL21-derived) or HEK-293
Method: (§1) Atropisomer A-2 has been tested for off-target activity against a panel of ninety-seven kinases distributed across the kinome at a concentration of 3 μM using the DiscoverX KinomeScreen assay. The DiscoverX KinomeScreen assay is a site-directed competition binding assay which measures the binding affinity of a compound to a kinase, by use of a solid supported control compound which can bind or capture the kinases in solution. In the absence of a kinase-inhibitor test compound, all of the kinase will bind to the solid support. If a kinase-inhibitor test compound is added to the assay mix, the amount of kinase binding to the solid support will be reduced, the extent of reduction being dependent on the potency of the test compound as a kinase inhibitor. […] For most assays, kinase-tagged T7 phage strains were grown in parallel in 24-well blocks in an E. coli host derived from the BL21 strain. […] The kinase concentration in the eluates was measured by qPCR. […] The strength of binding of the test molecule to the kinase can be expressed as the percent control (% Ctrl) The compound(s) were screened at 3000 nM concentration, and results for primary screen binding interactions are reported as ‘% Ctrl’, where lower numbers indicate stronger hits in the matrix on the following page(s). […]

[1] = tested on: panel of 48 cancer-derived cell lines; test: Proliferation assay on diverse cancer cell line panel, CellTiter-Glo, 72 hours; type: cell-based; conditions: for pIC50: 72 hours, listed as A-2
Method: Screening against diverse cancer cell lines was performed to identify tumour types displaying sensitivity to atropisomers A-1 and A-2. A panel of 48 cancer-derived cell lines was screened in a high-throughput proliferation assay using dilutions of atropisomers A-1/A-2. Cell lines that were screened included those representing cancer of the pancreas, large intestine/colorectum, lung, brain and nerves, and lymphoma and leukaemia cell lines. Cell lines were treated with serial half-log dilutions of compound and assayed 72 hours later for proliferation using CellTiter-Glo Assay (Promega). IC50 values were calculated by fitting the dose-response data using a nonlinear regression model.

PLK1 catalytic domain = biological target: T2, PLK1 catalytic domain (Homo sapiens, UniProt P53350); test: DiscoverX KinomeScreen competition binding assay, PLK1; conditions: read-out: % Ctrl @ 3 μM
T2 construct: purchased DiscoverX; host or cells: T7 phage in E. coli (BL21-derived) or HEK-293
T2 sequence (P53350 53-305 limits assumed): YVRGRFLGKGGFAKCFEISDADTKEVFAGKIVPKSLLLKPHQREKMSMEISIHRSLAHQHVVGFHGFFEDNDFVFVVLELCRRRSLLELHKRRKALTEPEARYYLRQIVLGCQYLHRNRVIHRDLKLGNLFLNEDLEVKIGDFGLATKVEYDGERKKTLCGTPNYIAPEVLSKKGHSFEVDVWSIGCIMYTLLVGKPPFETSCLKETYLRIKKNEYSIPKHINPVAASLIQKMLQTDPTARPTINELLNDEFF
Method: as §1

T1 sequence (O00444 12-265 limits assumed): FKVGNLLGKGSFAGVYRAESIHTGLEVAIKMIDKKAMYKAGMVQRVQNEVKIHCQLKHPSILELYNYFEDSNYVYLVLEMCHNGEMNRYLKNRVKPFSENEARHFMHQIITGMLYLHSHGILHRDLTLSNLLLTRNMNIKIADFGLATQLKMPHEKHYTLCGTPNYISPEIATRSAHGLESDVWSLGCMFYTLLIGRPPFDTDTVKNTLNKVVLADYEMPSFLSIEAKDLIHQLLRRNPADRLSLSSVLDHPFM

remaining binding at 3 µM (PLK4 catalytic domain): 100%
pIC50 ([1]; HOT 116, Large intestine/Colorectum): 6.64
pIC50 ([1]; ML-2, Blood/Leukaemia): 6.74
pIC50 ([1]; SVV620, Large intestine/Colorectum): 6.72
remaining binding at 3 µM (PLK1 catalytic domain): 97%
Compound: CN(C)CCNC(=O)c1ccc(-c2ccc(-c3ccc(Cl)cc3)n2-c2ccccc2C(F)(F)F)cc1 (single isomer, unassigned) [Atropisomer A-2, 4-[5-(4-chlorophenyl)-1-[2-(trifluoromethyl)phenyl]pyrrol-2-yl]-N-[2-(dimethylamino)ethyl]benzamide]
cell growth inhibition compared with atropisomer A-1 ([1]; all of the cell lines of the panel): significantly more active
